Measured values taken from patent US20220213052A1, “INHIBITORS OF RNA-BINDING PROTEINS, COMPOSITIONS THEREOF, AND THERAPEUTIC USES THEROF” (The University of North Carolina at Chapel Hill, priority 2019, published 2022).
Where a name gives a salt, the structure may show the parent alone. Read-outs that look alike come from different tables or passages of the source. Blank lines part the entries; values can stand above or below the molecule they belong to.

Experiments:
[1] = molecular target: T1, full-length human HuR protein (Homo sapiens, UniProt Q15717); test: FP assay of HuR-Msi1 ARE binding inhibition; conditions: HuR-Msi1 ARE interaction; read-out: HuR Ki via FP assay
T1 construct: full-length human HuR protein was produced by the KU COBRE-PSF Protein Purification Group; made in house
Text: (§1) A fluorescence polarization (FP)-based binding assay was utilized to assess the inhibition of HuR protein interaction with the ARE site of Msi1 mRNA (“HuR-Msi1^ARE”) by compounds of interest. Briefly, full-length human HuR protein was produced by the KU COBRE-PSF Protein Purification Group and Bcl2, Msi1 and XIAP mRNA sequences (16 nt) were designed based on literature precedent^23,24,31,32. Fluorescein labeled RNAs were purchased from Dharmacon with the following sequences: Msi1 RNA: 5′-[…]-3′-fluorescein; Bcl-2 RNA: 5′-[…]-3′-fluorescein; XIAP RNA: 5′-[…] UGUC-3′-fluorescein, and a 16-nt degenerative RNA with 3′-fluorescein label was used as a negative control.
(§2) With the FP assay of HuR-Msi1ARE binding, the inhibition of the HuR-Msi1ARE interaction by various compounds of the present technology was assessed. Similar FP assays for Musashi 2 (Msi2) and for RNA-binding protein Lin-28 homolog B (LIN28B) were also performed on various compounds of the present technology. The results of such assays for HuR are provided in Table 1 alongside the compound structures as well as ID numbers for ease of reference; the results of such assays for Msi1, Msi2, and LIN28B are provided in Table 2.

Musashi 2 (Msi2) = Musashi 2 (Msi2) (Homo sapiens, UniProt Q96DH6); test: Msi2 FP assay; assay type: binding
Experimental: as §2

[2] = molecular target: T2, HuR protein bound to ARE^Msi1-Biotin (Homo sapiens, UniProt Q15717); test: RNA immunoprecipitation (RNA-IP) pull-down assay; assay type: cell-based
T2 construct: endogenous in cells; cytoplasmic lysate
Experimental: Pull-down Assay #1—RNA Immunoprecipitation (RNA-IP): Cells with HuR overexpression will be treated with compounds, then the cell cytoplasmic lysates were collected using NE-PER Nuclear and Cytoplasmic Extraction Kit (Thermo Scientific), and subsequently to the cell cytoplasmic lysates were added the biotinylated target ARE oligo from Msi1 mRNA (ARE^Msi1-Biotin). Following this, streptavidin beads were added to pull down HuR protein bound to ARE^Msi1-Biotin. Unlabeled target AREs used as positive control. Compounds of the present technology block the HuR pull-down by the biotinylated ARE oligo, illustrating inhibition of the HuR-mRNA interaction. For example, using 20 μM KH-39, 20 μM KH-56, and 10 μM KH-58 in such a RNA-IP assay provided the data illustrated in FIG. 5. The numbers immediately below the pictured bands in FIG. 5 are calculated by diving the band intensity of the particular sample by the band intensity of the DMSO treated sample (entry 3). […]

MDA-MB-231 cells = test: Matrigel invasion assay; assay type: cell-based; conditions: 24 h pretreatment, 20 h incubation
Experimental: To examine the anti-metastatic effect of compounds of the present technology, an invasion assay using Matrigel Invasion Chambers coated with Matrigel Matrix was performed. To perform the assays, MDA-MB-231 cells pretreated with compounds for 24 hours are added to the chambers and then incubated for 20 hours. Cells that remained on the upper surface of the chamber are completely removed with a cotton swab. Cells that emigrated or invaded through the membrane/Matrigel to the bottom of the chamber were fixed and stained with 0.2% crystal violet and photographed.

[3] = molecular target: T3, RNA-binding protein Lin-28 homolog B (LIN28B) (Homo sapiens, UniProt Q6ZN17); test: LIN28B FP assay
T3 sequence (Q6ZN17 1-250): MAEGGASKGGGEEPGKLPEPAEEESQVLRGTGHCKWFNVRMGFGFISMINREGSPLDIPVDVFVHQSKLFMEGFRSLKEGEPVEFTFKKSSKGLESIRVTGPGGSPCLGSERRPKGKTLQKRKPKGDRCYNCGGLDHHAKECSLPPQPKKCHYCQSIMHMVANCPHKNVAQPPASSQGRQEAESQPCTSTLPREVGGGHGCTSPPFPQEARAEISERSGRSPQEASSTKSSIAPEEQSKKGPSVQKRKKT
Experimental: as §2

[4] = molecular target: T4, HuR-bound target mRNAs in MDA-MB-231 cells (Homo sapiens, UniProt Q15717); test: Ribonucleoprotein immunoprecipitation (RNP-IP) pull-down assay; assay type: cell-based
T4 construct: endogenous in cells; host or cells: MDA-MB-231
Experimental: Pull-down Assay #2—Ribonuleoprotein Immunoprecipitation (RNP-IP): Cells with HuR overexpression were treated with compounds, then the cell cytoplasmic lysates collected using NE-PER Nuclear and Cytoplasmic Extraction Kit (Thermo Scientific), then the cell cytoplasmic lysates incubated with anti-HuR antibody, and subsequently Protein G agarose beads (from Roche) added to pull down HuR protein. The HuR-bound target mRNAs pulled down were measured by qRT-PCR using a reported method (Ji, Q., et al., MicroRNA miR-34 inhibits human pancreatic cancer tumor-initiating cells. PLoS One, 2009. 4(8): p. e6816, incorporated herein by reference). Mouse IgG will be used as negative control. Compounds of the present technology block the target mRNAs pulled down by HuR antibody.

[5] = tested on: triple-negative breast cancer cell line MDA-MB-231; test: Cytotoxicity assay (WST-8), MDA-MB-231; assay type: cell-based; conditions: Homo sapiens, 96 h incubation
Experimental: (§3) The cytotoxicity of various compounds of the present technology in several cancer cell lines (pancreatic cancer cell line MIAPaCa-2, triple-negative breast cancer cell line MDA-MB-231, and colon cancer cell lines HCT116, HCT116 β/W, and RKO) was assessed by a cytotoxicity assay. Cells were seeded in 96-well culture plates (3,000-5,000 cells/well) and treated with titrated compounds in triplicate. After 96 h incubation, cell growth medium was removed and proliferation reagent WST-8 (Sigma) was added to each well and incubated at 37° C. for 1-3 h. Absorbance was then measured with a plate reader at 450 nm with correction at 650 nm. The results were expressed as the percentage of absorbance of treated wells versus that of vehicle control. IC50, the drug concentration causing 50% growth inhibition, was calculated via sigmoid curve fitting using GraphPad Prism 5.0. The results for those compounds tested against MIAPaCa-2 and MDA-MB-231 are provided in Table 1; the results for those compounds tested against colon cancer cell lines HCT116, HCT116 β/W, and RKO are provided in Table 3.

[6] = tested on: MDA-MB-231 HuR knockout clones (HuR KO1 and HuR KO2); test: Cytotoxicity against HuR knockout clones of MDA-MB-231; assay type: cell-based; conditions: HuR KO1 and HuR KO2 vs MDA-MB-231 and sgControl
Experimental: as §3
The cytotoxicity of KH-39 and KH-58 against HuR knockout clones was probed by the same assay as described above. […]

[7] = molecular target: T1, full-length human HuR protein; test: FP-based binding of full length HuR to fluorescein-labeled target RNAs; conditions: 16 nt RNA oligo, 3′-fluorescein
Experimental: FIG. 3 provides the results of a fluorescence polarization (FP)-based binding assay, illustrating that full length HuR binds to FITC-Bcl-2, Msi1, and XIAP RNA but not to scrambled oligo-FITC. The concentration of FITC-RNA used in the assay is 2 nM.
as §1

[8] = tested on: colon cancer cell line HCT116; test: Cytotoxicity assay (WST-8), HCT116; assay type: cell-based; conditions: Homo sapiens, HCT-116, 96 h incubation
Experimental: as §3

[9] = tested on: colon cancer cell line SW480; test: Cytotoxicity assay (WST-8), SW480; assay type: cell-based; conditions: Homo sapiens, 96 h incubation
[10] = tested on: colon cancer cell line RKO; test: Cytotoxicity assay (WST-8), RKO; assay type: cell-based; conditions: 96 h incubation
Experimental: as §3

[11] = tested on: colon cancer cell line HCT116 β/W; test: Cytotoxicity assay (WST-8), HCT116 β/W; assay type: cell-based; conditions: Homo sapiens, HCT-116, 96 h incubation
Experimental: as §3

[12] = tested on: pancreatic cancer cell line MIAPaCa-2; test: Cytotoxicity assay (WST-8), MIAPaCa-2; assay type: cell-based; conditions: Homo sapiens, MIA PaCa-2, 96 h incubation
Experimental: as §3

Msi1 = Msi1 (Homo sapiens, UniProt O43347); test: Msi1 FP assay; assay type: binding
Experimental: as §2

[13] = tested on: HuR targets in MDA-MB-231 cells; test: Western blot analysis of HuR targets and cell death markers; assay type: cell-based
Text: As HuR promotes stability of its target mRNAs, it is expected that HuR-inhibitors will block HuR function and shorten the half-life (t1/2) of target mRNAs. mRNA stability will be determined via quantitative real-time PCR (qRT-PCR) after co-treatment of compounds of the present technology and Actinomycin D (a transcription inhibitor). Because HuR also increases the translation of target mRNAs, the effect of compounds of the present technology on protein levels of HuR targets was probed by Western blot analysis.

[14] = cell marked (RRM1), read-out: Msi2 (Ki) (RRM1)

Chain of Musashi 2 (Msi2) (Q96DH6 whole entry, species assumed): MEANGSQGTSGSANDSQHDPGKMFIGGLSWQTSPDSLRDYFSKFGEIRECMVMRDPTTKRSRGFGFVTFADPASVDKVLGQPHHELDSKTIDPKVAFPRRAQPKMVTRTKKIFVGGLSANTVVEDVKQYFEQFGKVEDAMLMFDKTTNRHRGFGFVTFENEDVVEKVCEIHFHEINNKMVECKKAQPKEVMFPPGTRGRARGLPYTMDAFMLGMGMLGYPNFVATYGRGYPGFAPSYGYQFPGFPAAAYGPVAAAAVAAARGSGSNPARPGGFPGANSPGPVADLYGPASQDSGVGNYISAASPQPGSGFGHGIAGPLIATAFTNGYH
T1 sequence (Q15717 whole entry): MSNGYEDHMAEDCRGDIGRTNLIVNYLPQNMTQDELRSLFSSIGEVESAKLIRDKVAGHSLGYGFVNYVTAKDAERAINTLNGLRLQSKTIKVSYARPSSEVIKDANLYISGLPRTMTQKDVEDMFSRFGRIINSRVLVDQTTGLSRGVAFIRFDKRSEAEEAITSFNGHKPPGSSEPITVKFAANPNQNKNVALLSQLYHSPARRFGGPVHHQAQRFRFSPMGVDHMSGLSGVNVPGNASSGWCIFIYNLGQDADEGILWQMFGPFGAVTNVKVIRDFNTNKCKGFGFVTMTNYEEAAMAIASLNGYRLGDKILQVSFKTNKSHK
Chain of Msi1 (O43347 whole entry, species assumed): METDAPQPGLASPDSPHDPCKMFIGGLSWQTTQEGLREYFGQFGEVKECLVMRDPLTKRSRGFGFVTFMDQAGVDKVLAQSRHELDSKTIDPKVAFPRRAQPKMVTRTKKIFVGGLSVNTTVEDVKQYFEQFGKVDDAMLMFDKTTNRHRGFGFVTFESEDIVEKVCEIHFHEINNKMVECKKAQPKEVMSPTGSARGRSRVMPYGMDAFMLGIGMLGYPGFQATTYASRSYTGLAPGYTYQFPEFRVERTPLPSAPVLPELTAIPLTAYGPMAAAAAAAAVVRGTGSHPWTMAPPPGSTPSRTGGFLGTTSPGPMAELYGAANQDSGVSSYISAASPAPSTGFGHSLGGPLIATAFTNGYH
T2 sequence (Q15717 2-326 limits assumed): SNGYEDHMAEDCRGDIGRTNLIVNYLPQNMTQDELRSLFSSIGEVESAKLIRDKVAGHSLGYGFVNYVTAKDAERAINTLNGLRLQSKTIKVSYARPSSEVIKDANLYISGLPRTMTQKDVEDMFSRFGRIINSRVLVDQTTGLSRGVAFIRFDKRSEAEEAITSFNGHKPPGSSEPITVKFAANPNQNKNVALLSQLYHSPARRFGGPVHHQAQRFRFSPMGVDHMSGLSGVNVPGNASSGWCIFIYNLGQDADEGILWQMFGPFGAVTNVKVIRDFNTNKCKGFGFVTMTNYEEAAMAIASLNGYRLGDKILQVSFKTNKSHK
T4 sequence (Q15717 2-326 limits assumed): as above

Molecule: 5′-AAAAGAUUUAUUUAUU-3′-fluorescein (3'-fluorescein, further chemistry not given here) [Bcl-2 RNA, Fluorescein labeled 16 nt RNA purchased from Dharmacon]
- Kd [7]: 6.3 nM

Molecule: 5′-UAGUUAUUUUUA UGUC-3′-fluorescein (UAGUUAUUUUUAUGUC; 3'-fluorescein, further chemistry not given here) [XIAP RNA, Fluorescein labeled 16 nt RNA purchased from Dharmacon]
- Kd [7]: 3.5 nM

Molecule: 5′-GCUUUUAUUUAUUUUG-3′-fluorescein (3'-fluorescein, further chemistry not given here) [Msi1 RNA, Fluorescein labeled 16 nt RNA purchased from Dharmacon]
- Kd [7]: 2 nM

Molecule: CC(C)(C)c1ccc(C(=O)Nc2ccc3sc(/C=C/C(=O)O)cc3c2)cc1 [KH-19A, (E)-3-(5-(4-(tert-butyl)benzamido)benzo[b]thiophen-2-yl)acrylic acid]
- Ki [1]: 970 nM
- Ki (Musashi 2 (Msi2); [14]): 280 nM
- IC50 [8]: > 100000 nM
- Ki [3]: > 20000 nM
- IC50 [9]: > 100000 nM
- IC50 [5]: 72100 nM
- IC50 [10]: 78500 nM
- IC50 [11]: 80600 nM
- IC50 [12]: 56000 nM
- Ki (Msi1): 2240 nM

Continued, in another order:

- Ki [1]: 610 nM
- Ki (Musashi 2 (Msi2); [14]): 3350 nM
- Ki [3]: 4570 nM
Molecule: CN(C)c1ccc(C(=O)Nc2ccc3sc(C(=O)NO)cc3c2)cc1 [KH-58, 5-(4-(dimethylamino)benzamido)-N-hydroxybenzo[b]thiophene-2-carboxamide]
- ARE^Msi1-Biotin mediated pull-down of HuR protein ([2]; 10 μM): block ARE^Msi1-Biotin mediated pull-down of HuR protein
- MDA-MB-231 cell invasion (MDA-MB-231 cells; 5 μM): clearly inhibited MDA-MB-231 cell invasion
- HuR pull-down of target mRNAs ([4]; 5 μM): at least partially block HuR pull-down of target mRNAs
- IC50 [5]: 1310 nM
- IC50 of HuR KO clones versus parental cells and vector control cells [6]: two to three folds higher IC50 values

- Ki [1]: > 20000 nM
- Ki (Musashi 2 (Msi2); cell without (RRM1) mark, read-out: Msi2 (Ki)): > 20000 nM
- ARE^Msi1-Biotin mediated pull-down of HuR protein ([2]; 20 μM): did not show pull-down of HuR protein
- Ki [3]: > 20000 nM
Molecule: O=C(Nc1ccc2[nH]c(C(=O)NO)cc2c1)c1ccccn1 [KH-56, N-hydroxy-5-(picolinamido)-1H-indole-2-carboxamide hydrochloride]
- MDA-MB-231 cell invasion (MDA-MB-231 cells; 10 μM): did not provide a statistically significant difference
- HuR pull-down of target mRNAs ([4]; 10 μM): did not provide results statistically distinguishable from vehicle control
- IC50 [5]: 75300 nM

- Ki [1]: 150 nM
- Ki (Musashi 2 (Msi2); [14]): 450 nM
- Ki [3]: 3200 nM
- Ki (Msi1): 1970 nM
Molecule: CC(C)(C)c1ccc(C(=O)Nc2ccc3sc(/C=C/C(=O)NO)cc3c2)cc1 [KH-19, (E)-4-(tert-butyl)-N-(2-(3-(hydroxyamino)-3-oxoprop-1-en-1-yl)benzo[b]thiophen-5-yl)benzamide]
- cell death mechanisms: PARP cleavage, LC3 conversion, RIP3 activation [13]: induced cell death through apoptosis, autophagy and necroptosis
- protein levels of HuR targets [13]: decreased the protein levels of HuR targets
- MDA-MB-231 cell invasion (MDA-MB-231 cells; concentrations indicated in FIG. 8): inhibited MDA-MB-231 cell invasion
- IC50 [8]: 2220 nM
- IC50 [9]: 5140 nM
- IC50 [5]: 1330 nM
- IC50 [10]: 4480 nM
- IC50 [11]: 2630 nM
- IC50 [12]: 2340 nM
